Data published in US8962576B2, “Compositions and method for improving endothelial function and cardiovascular health” (Natreon, Inc., priority 2012, dated 2015).

Key:
Format in all cases: in vivo, human
Type 2 Diabetic Subjects [1] = test: Bleeding time, Duke's Method, study (c) subset (i); settings: Table XIV-A, n = 10
Method: Bleeding Time: Bleeding time in seconds was recorded at baseline and at day 10, after 4 hrs post treatment in all the treatment groups by Duke's Method. Normal Range: 60-180 Sec.

Type 2 Diabetic Subjects [2] = test: Clotting time, Capillary Tube Method, study (c) subset (i); settings: Table XIV-B, n = 10
Method: Clotting Time: Clotting time in seconds was recorded at baseline and at day 10, after 4 hrs post treatment in all the treatment groups by Capillary Tube Method. Normal Range-300-480 Sec.

platelet aggregation = test: Inhibition of platelet aggregation using ADP as aggregant, study (c) subset (i); settings: Clopidogrel 75 mg single dose Day 1, CAPROS 500 mg BD multiple dose Day 10, combination Day 11, n = 10
Method: The platelet aggregation was determined by the following procedure using Wheecon chronologue dual channel platelet aggregometer (Wheecon Instruments Pvt. Ltd., Chemai, Tamilnadu, India). The percentage decrease in platelet aggregation was recorded at baseline and 3 hours post treatment. Approximately 9 ml of blood sample was collected in a 10 ml plastic test tube containing 1 ml of 3.8% Sodium Citrate from the cubital vein of the subject at baseline and after 3 hours post treatment in all the groups. The test was performed immediately within a time period of one and half hours from collection. The samples were centrifuged at 800 rpm for 15 minutes to obtain a platelet-rich plasma. […] The readings were recorded at baseline and after treatment with ADP. The percentage aggregation at baseline and the percentage inhibition of platelet aggregation on post treatment with all the four treatments was calculated. […]
The effect of CAPROS® 500 mg BD (multiple dose study), Clopidogrel 75 mg (single dose study) and Capros 500 mg+Clopidogrel 75 mg on platelet function was determined by the following procedure using the dual channel platelet aggregometer instrument, as described above. The percentage aggregation at baseline and the percentage inhibition of platelet aggregation on post treatment with all the three treatments was calculated.

[3] = 4th Hr Post treatment, Clopidogrel 75 mg Day 1, CAPROS 500 mg BD Day 10, combination Day 11
[4] = Baseline, Clopidogrel 75 mg single dose, CAPROS 500 mg BD multiple dose, combination

COC(=O)[C@H](c1ccccc1Cl)N1CCc2sccc2C1 [CLOPIDOGREL, Clopidogrel]
Bleeding Time, Mean (Type 2 Diabetic Subjects [1]; [3]): 97.30 s
Bleeding Time, Mean (Type 2 Diabetic Subjects [1]; [4]): 84.40 s
Bleeding Time, Mean (Type 2 Diabetic Subjects [2]; [3]): 249.5 s
Bleeding Time, Mean (Type 2 Diabetic Subjects [2]; [4]): 207.5 s
inhibition of platelet aggregation, Mean (platelet aggregation): 47.40%
